According to patent US20100266618A1, “COMPOSITIONS AND METHODS FOR AUGMENTING ACTIVITY OF ONCOLYTIC VIRUSES” (priority 2009, published 2010):

Assays:
[1] = test system: U373 and OVCAR8 cells; format: cell-based, human
[2] = test system: EMT6 breast cancer line; assay: In vitro cytotoxicity assay with small molecule followed by Maraba virus infection; settings: 50 uM for 48 h prior to Maraba virus infection
Procedure: In vitro cytotoxicity assays with small molecules: Cells were seeded onto 96 well plates to a confluence of ˜50%. The following day, siRNA transfections were performed, or small-molecule IRE1α inhibition was initiated. For the small-molecules, DMSO was used as a vehicle with a [drug]=20-50 μM. Drug treatment occurred for either 4 h (“acute” treatment), or was re-applied at 24 h and left for 48 h total (“chronic” treatment). Following knockdown or chemical inhibition, the cells were infected at log dilutions with the indicated rhabdoviruses. After 48-72 h of infection (depending on the cell line), Resazurin sodium salt was added to a final concentration of 20 μg/ml. After a 6 h incubation the absorbance was read at a wavelength of 573 nm.

[3] = Pharmacokinetic (PK) study, plasma LC-MS; format: in vivo; settings: CD-1 nude mice
Procedure: (§1) Maximum tolerable dose (MTD) and pharmacokinetic (PK) studies in mice: For MTD studies, groups of three CD-1 nude mice (6-8 weeks old) were given a single intraperitoneal (IP) injection of Compound 2 (in log 2 increments, diluted in 10% Tween-80) ranging from […]-1000 mg/Kg. The animals were monitored twice daily for signs of distress, including weight loss, morbidity, and respiratory distress. For PK studies, groups of three CD-1 nude mice (6-8 weeks old) were given a single IP injection of Compound 2 (250 mg/Kg), and blood was taken from the saphenous vein at the indicated timepoints. The blood was centrifuged at 3,000 rpm for 10 min, and plasma collected and frozen (−80 deg C.). Plasma samples were analyzed for Compound 2 using LC-MS. To 10 μL plasma, 20 μL acetonitrile was added, vortexed briefly and centrifuged at 14,000 rpm for 10 min. The clear supernatant was transferred in to a vial for LC-MS analysis. Chromatographic separations were carried out on an Acquity UPLC BEH C18 (2.1×50 mm, […]) column using ACQUITY UPLC system. The mobile phase was 0.1% formic acid in water (solvent A) and 0.1% formic acid in acetonitrile (solvent B). A gradient starting at 95% solvent A going to 5% in 4.5 min, holding for 0.5 min, going back to 95% in 0.5 min and equilibrating the column for 1 min was employed. […]

[4] = Maximum tolerable dose (MTD) study; format: in vivo; settings: single IP injection, CD-1 nude mice
Procedure: as §1

[5] = test system: OVCAR-4 xenograft; assay: Ovarian xenograft model, bioluminescent imaging; format: in vivo, CD-1 nude mice
Procedure: Ovarian xenograft model: Human ovarian carcinoma-derived OVCAR-4 cells, adapted for bioluminescent imaging, were injected into 6-8 week old athymic CD-1 nude mice (IP injection, 5×10^6 cells per mouse). Untreated animals develop measurable abdominal tumours (assessed by IVIS imaging) by 4-7 days, become icteric by 3-4 months and must be euthanized shortly thereafter due to systemic disease as characterized by enlarged cancerous liver and spleen, pale kidneys, and cancerous lymph nodes on the abdominal mesentery. For efficacy experiments, Compound 2 (250 mg/kg; or vehicle (10% Tween-80)) was administered twice daily (IP injections), beginning on day 14 and ending on day 19. Maraba-DM (1×10^5 pfu per cell) or PBS was injected IV (tail vein) on day 16, 17, 19, 23, 25, 27. Animals were monitored daily for weight loss, morbidity, hind leg paralysis and respiratory distress. Tumour images were captured twice weekly with a Xenogen 200 IVIS system (Caliper LS, USA), and total luminescent flux was analyzed on computerized software (Xenogen).

[6] = test system: EMT6 tumours; assay: EMT6 syngeneic breast cancer model, bioluminescent imaging and survival; format: in vivo, Balb/c mice
Procedure: EMT6 syngeneic breast cancer models: Murine EMT6 breast cancer-derived cells (1×10^5 per mouse) were adapted for bioluminescent imaging and injected into the fat pad of the right lower breast in 6-8 week old Balb/c mice. Mice developed palpable tumours by 5-7 days, which grew rapidly. At 7 days post-tumour implants, mice were treated with Compound 2 (250 mg/kg, IP) or vehicle, twice daily, for six days. Maraba-DM (1×10^7 pfu per cell) or PBS was injected IV (tail vein) on day 10, 11, 13, 16, and 17. Animals were monitored daily for piloerection, weight loss, morbidity, hind leg paralysis and respiratory distress. Tumour images were captured twice weekly using a Xenogen 200 IVIS system (Caliper LS, USA), and total luminescent flux was analyzed on computerized software (Xenogen). Mice were euthanized when the total flux exceeded 1×10^7, which corresponded to a tumour burden of ˜500 mm^3 and occurred between 14-17 days in untreated animals.

Compound	eIF2alpha phosphorylation [1]	sensitization to oncolytic virus killing [2]	bio-distribution [3]	half-life ([3]; mouse, plasma, intraperitoneal, 250 mg/Kg)	tolerated single dose [4]	duration of reduced tumour burden ([5]; combination with Maraba-DM)	tumour burden ([5]; combination with Maraba-DM, Compound 2 250 mg/kg IP twice daily)	tumour growth ([5]; single agent)	tumour burden ([6]; combination with Maraba virus, 250 mg/Kg IP twice daily for 6 days)	tumour growth after drug treatment was stopped ([6]; combination, virus dosing continued)	tumour growth ([6]; single agent)	efficacy (survival) with extended treatment ([6]; treatment extended to more than 12 days in combination with virus)
tunicamycin [reference compound]	inducing elF2alpha phosphorylation											
COc1cc(-c2cccc(C(N)=O)c2)cc(C=O)c1O [Compound 2, 3′-formyl-4′-hydroxy-5′-methoxy-[1,1′-biphenyl]-3-carboxamide]		significantly sensitized to oncolytic virus killing	efficient bio-distribution to the extravascular tissues	> 6 h	up to 1000 mg/Kg	> 30 days	dramatically reduced tumour burden	rapid re-growth occurred after an early period of tumour regression	significantly reduced tumour burden	tumour re-growth occurred even in the presence of continued virus dosing	neither drug nor virus had an appreciable effect on tumour growth	continued to increase efficacy
